Data taken from PubChem BioAssay (NCI).
Where “and” joins values, the source holds several entries; their conditions need not be identical. Equal values may be shown once.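 Five concentrations, 48 hours, 96-well plates. GI50: concentration for 50% inhibition of growth. TGI is the concentration that stops growth completely.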

Key:
Assay in all cases: DTP human tumour cell line panel, 48 h
UO-31 renal = test system: UO-31 renal
DMS 114 small cell lung = test system: DMS 114 small cell lung
CAKI-1 renal = test system: CAKI-1 renal
TK-10 renal = test system: TK-10 renal
LXFL 529 NSCLC = test system: LXFL 529 NSCLC
DMS 273 small cell lung = test system: DMS 273 small cell lung
HCT-116 colon = test system: HCT-116 colon
UACC-62 melanoma = test system: UACC-62 melanoma
HOP-62 NSCLC = test system: HOP-62 NSCLC
OVCAR-3 ovarian = test system: OVCAR-3 ovarian
K-562 leukemia = test system: K-562 leukemia
U251 CNS = test system: U251 CNS
KM20L2 colon = test system: KM20L2 colon
IGROV1 ovarian = test system: IGROV1 ovarian
A498 renal = test system: A498 renal
ACHN renal = test system: ACHN renal
NCI-H226 lung = test system: NCI-H226 lung
NCI-H460 lung = test system: NCI-H460 lung
SK-OV-3 ovarian = test system: SK-OV-3 ovarian
SK-MEL-5 melanoma = test system: SK-MEL-5 melanoma
HCT-15 colon = test system: HCT-15 colon
SNB-75 CNS = test system: SNB-75 CNS
A549 NSCLC = test system: A549 NSCLC
HT29 colon = test system: HT29 colon
OVCAR-4 ovarian = test system: OVCAR-4 ovarian
EKVX NSCLC = test system: EKVX NSCLC
RPMI-8226 leukemia = test system: RPMI-8226 leukemia
DLD-1 colon = test system: DLD-1 colon
SK-MEL-2 melanoma = test system: SK-MEL-2 melanoma
SF-295 CNS = test system: SF-295 CNS
OVCAR-8 ovarian = test system: OVCAR-8 ovarian
NCI-H23 lung = test system: NCI-H23 lung
OVCAR-5 ovarian = test system: OVCAR-5 ovarian
KM12 colon = test system: KM12 colon
786-0 renal = test system: 786-0 renal
UACC-257 melanoma = test system: UACC-257 melanoma
CCRF-CEM leukemia = test system: CCRF-CEM leukemia
SW-620 colon = test system: SW-620 colon
MALME-3M melanoma = test system: MALME-3M melanoma
MOLT-4 leukemia = test system: MOLT-4 leukemia
SF-539 CNS = test system: SF-539 CNS
HL-60(TB) leukemia = test system: HL-60(TB) leukemia
M19-MEL melanoma = test system: M19-MEL melanoma
XF 498 CNS = test system: XF 498 CNS
SK-MEL-28 melanoma = test system: SK-MEL-28 melanoma
RXF 393 renal = test system: RXF 393 renal
SNB-78 CNS = test system: SNB-78 CNS
HCC-2998 colon = test system: HCC-2998 colon
HOP-92 NSCLC = test system: HOP-92 NSCLC
SR leukemia = test system: SR leukemia
SNB-19 CNS = test system: SNB-19 CNS
SF-268 CNS = test system: SF-268 CNS
LOX IMVI melanoma = test system: LOX IMVI melanoma
SN12C renal = test system: SN12C renal
COLO 205 colon = test system: COLO 205 colon

Cc1ccc(S(=O)(=O)Nc2ccccc2C(C)(C)C)cc1
TGI (UO-31 renal): 47.3 µM
TGI (DMS 114 small cell lung): 60.4 µM
TGI (CAKI-1 renal): 59.3 µM
TGI (TK-10 renal): > 100 µM
TGI (LXFL 529 NSCLC): 78.1 µM
TGI (DMS 273 small cell lung): 38.5 µM
TGI (HCT-116 colon): 29.1 µM
TGI (UACC-62 melanoma): 44.4 µM
TGI (HOP-62 NSCLC): 45.9 µM
TGI (OVCAR-3 ovarian): 40 µM
TGI (K-562 leukemia): 50.1 µM
TGI (U251 CNS): 43.3 µM
TGI (KM20L2 colon): 36.7 µM
TGI (IGROV1 ovarian): > 100 µM
TGI (A498 renal): 59.7 µM
TGI (ACHN renal): > 100 µM
TGI (NCI-H226 lung): 56.3 µM
TGI (NCI-H460 lung): 42.2 µM
TGI (SK-OV-3 ovarian): 81.3 µM
TGI (SK-MEL-5 melanoma): 29.8 µM
TGI (HCT-15 colon): 54.6 µM
TGI (SNB-75 CNS): > 100 µM
TGI (A549 NSCLC): > 100 µM
TGI (HT29 colon): 31.9 µM
TGI (OVCAR-4 ovarian): > 100 µM
TGI (EKVX NSCLC): > 100 µM
TGI (RPMI-8226 leukemia): 54.3 µM
TGI (DLD-1 colon): > 100 µM
TGI (SK-MEL-2 melanoma): 60.2 µM
TGI (SF-295 CNS): 32 µM
TGI (OVCAR-8 ovarian): > 100 µM
TGI (NCI-H23 lung): 46.3 µM
TGI (OVCAR-5 ovarian): > 100 µM
TGI (KM12 colon): 47.1 µM
TGI (786-0 renal): 62.5 µM
TGI (UACC-257 melanoma): 35.4 µM
TGI (CCRF-CEM leukemia): 63.8 µM
TGI (SW-620 colon): > 100 µM
TGI (MALME-3M melanoma): 89.1 µM
TGI (MOLT-4 leukemia): 62.8 µM
TGI (SF-539 CNS): 33.9 µM
TGI (HL-60(TB) leukemia): 44.7 µM
TGI (M19-MEL melanoma): 82.3 µM
TGI (XF 498 CNS): 44.8 µM
TGI (SK-MEL-28 melanoma): 43.2 µM
TGI (RXF 393 renal): 26.8 µM
TGI (SNB-78 CNS): > 100 µM
TGI (HCC-2998 colon): > 100 µM

COc1cccc(/C=N/[N-]C(N)=O)c1[O-].[Cu+2].[OH3+]
TGI (UO-31 renal): 31.7 µM
GI50 (HOP-92 NSCLC): 4.77 µM
TGI (HOP-92 NSCLC): 8.9 µM and 15.5 µM
GI50 (HCT-116 colon): 4.09 µM
TGI (HCT-116 colon): 15.9 µM
GI50 (SR leukemia): 5.67 µM
TGI (SR leukemia): 43.9 µM
GI50 (SNB-19 CNS): 14.9 µM
TGI (SNB-19 CNS): 8.97 µM and 28.5 µM
TGI (SF-268 CNS): 32.9 µM
TGI (HOP-62 NSCLC): 44.3 µM
GI50 (OVCAR-3 ovarian): 10.4 µM
TGI (OVCAR-3 ovarian): 22.8 µM
GI50 (K-562 leukemia): 5.7 µM
TGI (K-562 leukemia): 45.2 µM
GI50 (U251 CNS): 7.38 µM
TGI (U251 CNS): 19.7 µM
TGI (KM20L2 colon): 20.6 µM
GI50 (IGROV1 ovarian): 6.14 µM
TGI (IGROV1 ovarian): 19.6 µM
TGI (A498 renal): 32.2 µM
TGI (ACHN renal): 24.8 µM
TGI (NCI-H226 lung): 31.3 µM
TGI (NCI-H460 lung): 36 µM
TGI (HCT-15 colon): 27.2 µM
TGI (SNB-75 CNS): 25.1 µM
GI50 (HT29 colon): 9.17 µM
TGI (HT29 colon): 21.3 µM
TGI (OVCAR-4 ovarian): 32.3 µM
TGI (EKVX NSCLC): 34.9 µM
TGI (RPMI-8226 leukemia): > 100 µM
TGI (SK-MEL-2 melanoma): 31.3 µM
TGI (SF-295 CNS): 28.9 µM
TGI (LOX IMVI melanoma): 30.6 µM
GI50 (OVCAR-8 ovarian): 10.7 µM
TGI (OVCAR-8 ovarian): 24.4 µM
GI50 (NCI-H23 lung): 9.7 µM
TGI (NCI-H23 lung): 21.9 µM
TGI (OVCAR-5 ovarian): 32.6 µM
TGI (KM12 colon): 28 µM
TGI (SN12C renal): 27.2 µM
TGI (786-0 renal): 30.3 µM
TGI (UACC-257 melanoma): 28.5 µM
GI50 (COLO 205 colon): 9.49 µM
TGI (COLO 205 colon): > 100 µM
TGI (SW-620 colon): 27.3 µM
TGI (MALME-3M melanoma): 28.8 µM
GI50 (MOLT-4 leukemia): 10.1 µM
TGI (MOLT-4 leukemia): 38.3 µM
TGI (SF-539 CNS): 33.5 µM
GI50 (HL-60(TB) leukemia): 10.8 µM
TGI (HL-60(TB) leukemia): > 100 µM
GI50 (XF 498 CNS): 15.9 µM
TGI (XF 498 CNS): 29.4 µM
TGI (SK-MEL-28 melanoma): 27.8 µM
TGI (RXF 393 renal): 36.2 µM
TGI (HCC-2998 colon): 31 µM
